ChEMBL document CHEMBL1137749, “Antifungal unsaturated cyclic Mannich ketones and amino alcohols: study of mechanism of action” (2009)
≈ marks a conversion by molar mass, not a printed value. Calls of active or inactive are those of the source. The calls are words filed in the database; no cut-off is given here.

Columns and labels:
Candida albicans [1] = assay: Antifungal activity against Candida albicans ATCC 90028 assessed as changes in fungal protein expression at 2 times MIC after 1 hr by electrophoresis-based microchip technology; type: functional, organism-based
Candida parapsilosis = assay: Antifungal activity against Candida parapsilosis ATCC 22019 after 48 hrs by macro tube dilution method; type: functional; details: Lodderomyces parapsilosis, ATCC 22019, 48 h
Candida albicans [2] = assay: Antifungal activity against Candida albicans ATCC 90028 after 48 hrs by macro tube dilution method; type: functional; details: ATCC 90028, 48 h
Aspergillus sp. = assay: Antifungal activity against Aspergillus sp. after 48 hrs by macro tube dilution method; type: functional
Nakaseomyces glabratus = assay: Antifungal activity against Candida glabrata ATCC 3916 after 48 hrs by macro tube dilution method; type: functional; details: ATCC 3916, 48 h
Candida albicans [3] = assay: Antifungal activity against Candida albicans ATCC 90028 assessed as changes in fungal protein expression at 0.5 time MIC after 1 hr by electrophoresis-based microchip technology; type: functional, organism-based
Saccharomyces cerevisiae = assay: Antifungal activity against Saccharomyces cerevisiae after 48 hrs by macro tube dilution method; type: functional
Pichia kudriavzevii = assay: Antifungal activity against Candida krusei ATCC 30068 after 48 hrs by macro tube dilution method; type: functional; details: ATCC 30068, 48 h
Candida albicans [4] = assay: Inhibition of chitin synthase in Candida albicans ATCC 90028 at 1.5 times MIC by liquid scintillation analyzer relative to nikkomycin
Rattus norvegicus = organism: Rattus norvegicus; assay: Inhibition of lactate dehydrogenase in Wistar rat kidney at 1.5 times MIC relative to control
Candida albicans [5] = assay: Antifungal activity against Candida albicans ATCC 90028 assessed as inhibition of fungal ergosterol synthesis at 0.5 times MIC after 16 hrs by UV spectrophotometry; type: functional, organism-based

**Q.** Which Activity (Candida albicans [1]) does the source give for `COc1ccccc1/C=C1\CCC(CN2CCCCC2)C1=O` (centres undefined) here?
**A.** inactive

**Q.** And the MIC (Candida parapsilosis)?
**A.** 12.5 mg/L (≈ 41.7 µM)

**Q.** What about the MIC (Candida albicans [2]) of the same compound?
**A.** 6.25 mg/L (≈ 20.9 µM)

**Q.** What about the MIC (Aspergillus sp.) of the same compound?
**A.** 100 mg/L (≈ 334 µM)

**Q.** And the MIC (Nakaseomyces glabratus)?
**A.** 12.5 mg/L (≈ 41.7 µM)

**Q.** And the Activity (Candida albicans [3])?
**A.** inactive

**Q.** What about the MIC (Saccharomyces cerevisiae) of the same compound?
**A.** 6.25 mg/L (≈ 20.9 µM)

**Q.** What about the MIC (Pichia kudriavzevii) of the same compound?
**A.** 12.5 mg/L (≈ 41.7 µM)

**Q.** `O=C1/C(=C/c2ccccc2)CCC1CN1CCOCC1` (centres undefined) was tested. Which MIC (Candida parapsilosis) did it give?
**A.** 3.12 mg/L (≈ 11.5 µM)

**Q.** And the MIC (Candida albicans [2])?
**A.** 3.12 mg/L (≈ 11.5 µM)

**Q.** What about the MIC (Aspergillus sp.) of the same compound?
**A.** 50 mg/L (≈ 184 µM)

**Q.** And the MIC (Nakaseomyces glabratus)?
**A.** 6.25 mg/L (≈ 23 µM)

**Q.** And the MIC (Saccharomyces cerevisiae)?
**A.** 0.8 mg/L (≈ 2.95 µM)

**Q.** What about the MIC (Pichia kudriavzevii) of the same compound?
**A.** 3.12 mg/L (≈ 11.5 µM)

**Q.** `CC1CCN(C[C@H]2CCC/C(=C\c3ccccc3)[C@@H]2O)CC1` (relative stereo) was tested. Which MIC (Candida parapsilosis) did it give?
**A.** > 200 mg/L

**Q.** What about the MIC (Candida albicans [2]) of the same compound?
**A.** > 200 mg/L

**Q.** And the MIC (Aspergillus sp.)?
**A.** > 200 mg/L

**Q.** What about the MIC (Nakaseomyces glabratus) of the same compound?
**A.** > 200 mg/L

**Q.** And the MIC (Saccharomyces cerevisiae)?
**A.** 100 mg/L (≈ 334 µM)

**Q.** And the MIC (Pichia kudriavzevii)?
**A.** > 200 mg/L

**Q.** For `COc1ccc(/C=C2\CCCC(CN3CCOCC3)C2=O)cc1OC` (centres undefined), which MIC (Candida parapsilosis) is on record?
**A.** 50 mg/L (≈ 145 µM)

**Q.** And the MIC (Candida albicans [2])?
**A.** 25 mg/L (≈ 72.4 µM)

**Q.** And the MIC (Aspergillus sp.)?
**A.** > 200 mg/L

**Q.** What about the MIC (Nakaseomyces glabratus) of the same compound?
**A.** 100 mg/L (≈ 289 µM)

**Q.** And the MIC (Saccharomyces cerevisiae)?
**A.** 25 mg/L (≈ 72.4 µM)

**Q.** What about the MIC (Pichia kudriavzevii) of the same compound?
**A.** 50 mg/L (≈ 145 µM)

**Q.** How did the MIC (Candida parapsilosis) turn out when `COc1cc(/C=C2\CCC(CN3CCCCC3)C2=O)cc(OC)c1OC` (centres undefined) was run?
**A.** 50 mg/L (≈ 139 µM)

**Q.** What about the MIC (Candida albicans [2]) of the same compound?
**A.** 12.5 mg/L (≈ 34.8 µM)

**Q.** And the MIC (Aspergillus sp.)?
**A.** 100 mg/L (≈ 278 µM)

**Q.** And the MIC (Nakaseomyces glabratus)?
**A.** 100 mg/L (≈ 278 µM)

**Q.** And the MIC (Saccharomyces cerevisiae)?
**A.** 25 mg/L (≈ 69.5 µM)

**Q.** And the MIC (Pichia kudriavzevii)?
**A.** 12.5 mg/L (≈ 34.8 µM)

**Q.** How did the MIC (Candida parapsilosis) turn out when `CC1CCN(CC2CCC/C(=C\c3ccccc3)C2=O)CC1` (centres undefined) was run?
**A.** 25 mg/L (≈ 84 µM)

**Q.** What about the MIC (Candida albicans [2]) of the same compound?
**A.** 12.5 mg/L (≈ 42 µM)

**Q.** And the MIC (Aspergillus sp.)?
**A.** 100 mg/L (≈ 336 µM)

**Q.** And the MIC (Nakaseomyces glabratus)?
**A.** 100 mg/L (≈ 336 µM)

**Q.** And the MIC (Saccharomyces cerevisiae)?
**A.** 12.5 mg/L (≈ 42 µM)

**Q.** And the MIC (Pichia kudriavzevii)?
**A.** 100 mg/L (≈ 336 µM)

**Q.** How did the MIC (Candida parapsilosis) turn out when `O=C1/C(=C/c2ccccc2)CCCC1CN1CCOCC1` (centres undefined) was run?
**A.** 12.5 mg/L (≈ 43.8 µM)

**Q.** What about the MIC (Candida albicans [2]) of the same compound?
**A.** 25 mg/L (≈ 87.6 µM)

**Q.** And the MIC (Aspergillus sp.)?
**A.** > 200 mg/L

**Q.** What about the MIC (Nakaseomyces glabratus) of the same compound?
**A.** > 200 mg/L

**Q.** And the MIC (Saccharomyces cerevisiae)?
**A.** 3.12 mg/L (≈ 11 µM)

**Q.** What about the MIC (Pichia kudriavzevii) of the same compound?
**A.** 25 mg/L (≈ 87.6 µM)

**Q.** For `COc1ccc(/C=C2\CCC(CN3CCOCC3)C2=O)cc1` (centres undefined), which Activity (Candida albicans [1]) is on record?
**A.** inactive

**Q.** What about the MIC (Candida parapsilosis) of the same compound?
**A.** 6.25 mg/L (≈ 20.7 µM)

**Q.** And the MIC (Candida albicans [2])?
**A.** 3.12 mg/L (≈ 10.4 µM)

**Q.** And the MIC (Aspergillus sp.)?
**A.** 200 mg/L (≈ 664 µM)

**Q.** What about the MIC (Nakaseomyces glabratus) of the same compound?
**A.** 6.25 mg/L (≈ 20.7 µM)

**Q.** And the Activity (Candida albicans [3])?
**A.** inactive

**Q.** And the MIC (Saccharomyces cerevisiae)?
**A.** 1.56 mg/L (≈ 5.18 µM)

**Q.** What about the MIC (Pichia kudriavzevii) of the same compound?
**A.** 12.5 mg/L (≈ 41.5 µM)

**Q.** For `O=C1/C(=C/c2ccccc2)CCC1CN1CCCC1` (centres undefined), which Activity (Candida albicans [1]) is on record?
**A.** inactive

**Q.** What about the MIC (Candida parapsilosis) of the same compound?
**A.** 6.25 mg/L (≈ 24.5 µM)

**Q.** What about the MIC (Candida albicans [2]) of the same compound?
**A.** 6.25 mg/L (≈ 24.5 µM)

**Q.** What about the MIC (Aspergillus sp.) of the same compound?
**A.** 50 mg/L (≈ 196 µM)

**Q.** What about the MIC (Nakaseomyces glabratus) of the same compound?
**A.** 12.5 mg/L (≈ 49 µM)

**Q.** And the Activity (Candida albicans [3])?
**A.** inactive

**Q.** What about the MIC (Saccharomyces cerevisiae) of the same compound?
**A.** 3.12 mg/L (≈ 12.2 µM)

**Q.** What about the MIC (Pichia kudriavzevii) of the same compound?
**A.** 6.25 mg/L (≈ 24.5 µM)

**Q.** `O=C1/C(=C/c2ccccc2)CCCCCC1CN1CCCCC1` (centres undefined) was tested. Which inhibition (Candida albicans [4]) did it give?
**A.** 50%

**Q.** What about the MIC (Candida parapsilosis) of the same compound?
**A.** 200 mg/L (≈ 642 µM)

**Q.** What about the MIC (Candida albicans [2]) of the same compound?
**A.** 100 mg/L (≈ 321 µM)

**Q.** What about the MIC (Aspergillus sp.) of the same compound?
**A.** 100 mg/L (≈ 321 µM)

**Q.** What about the MIC (Nakaseomyces glabratus) of the same compound?
**A.** > 200 mg/L

**Q.** And the inhibition (Rattus norvegicus)?
**A.** 30%

**Q.** What about the MIC (Saccharomyces cerevisiae) of the same compound?
**A.** 100 mg/L (≈ 321 µM)

**Q.** And the MIC (Pichia kudriavzevii)?
**A.** 200 mg/L (≈ 642 µM)

**Q.** What does the source list for `COc1cccc(/C=C2\CCC(CN3CCCCC3)C2=O)c1` (centres undefined)?
**A.** MIC (Candida parapsilosis): 6.25 mg/L (≈ 20.9 µM); MIC (Candida albicans [2]): 12.5 mg/L (≈ 41.7 µM); MIC (Aspergillus sp.): 100 mg/L (≈ 334 µM); MIC (Nakaseomyces glabratus): 12.5 mg/L (≈ 41.7 µM); MIC (Saccharomyces cerevisiae): 6.25 mg/L (≈ 20.9 µM); MIC (Pichia kudriavzevii): 12.5 mg/L (≈ 41.7 µM)

**Q.** With `O=C1/C(=C/c2ccccc2)CCCCC1CN1CCOCC1` (centres undefined) as the compound, how does the inhibition (Candida albicans [4]) read?
**A.** 24%

**Q.** And the Activity (Candida albicans [5])?
**A.** inactive

**Q.** What about the MIC (Candida parapsilosis) of the same compound?
**A.** 100 mg/L (≈ 334 µM)

**Q.** What about the MIC (Candida albicans [2]) of the same compound?
**A.** 25 mg/L (≈ 83.5 µM)

**Q.** What about the MIC (Aspergillus sp.) of the same compound?
**A.** 200 mg/L (≈ 668 µM)

**Q.** What about the MIC (Nakaseomyces glabratus) of the same compound?
**A.** > 200 mg/L

**Q.** And the inhibition (Rattus norvegicus)?
**A.** inactive

**Q.** And the MIC (Saccharomyces cerevisiae)?
**A.** 50 mg/L (≈ 167 µM)

**Q.** And the MIC (Pichia kudriavzevii)?
**A.** 100 mg/L (≈ 334 µM)

**Q.** Which MIC (Candida parapsilosis) does the source give for `O[C@H]1/C(=C/c2ccccc2)CCCC[C@@H]1CN1CCCCC1` (relative stereo) here?
**A.** 100 mg/L (≈ 334 µM)

**Q.** And the MIC (Candida albicans [2])?
**A.** 50 mg/L (≈ 167 µM)

**Q.** And the MIC (Aspergillus sp.)?
**A.** > 200 mg/L

**Q.** And the MIC (Nakaseomyces glabratus)?
**A.** 100 mg/L (≈ 334 µM)

**Q.** What about the MIC (Saccharomyces cerevisiae) of the same compound?
**A.** 25 mg/L (≈ 83.5 µM)

**Q.** What about the MIC (Pichia kudriavzevii) of the same compound?
**A.** 100 mg/L (≈ 334 µM)
